Measured values taken from patent US20250352444A1, “Antimicrobial mixtures” (Symrise AG, priority 2022, published 2025).
Read-outs that look alike come from different tables or passages of the source. Blank lines part the entries; values can stand above or below the molecule they belong to.

Legend:
[1] = tested on: Prevotella intermedia (DSM 20706, ATCC25611); assay: Minimum inhibitory concentration (MIC), DIN 58940-8 micro dilution method; assay type: cell-based; conditions: for MIC: Prevotella intermedia
Method: (§1) MIC data were evaluated based on DIN 58940-8 micro dilution method. For the experiments three relevant bacteria occurring in the oral biofilm were selected: Streptococcus mutans (DSM 20523, ATCC 25175), Porphyromonas gingivalis (DSM 20709, ATCC33277), and Prevotella intermedia (DSM 20706, ATCC25611).
(§2) All test organisms were cultivated in suitable complex medium and under anaerobic and/or microaerophilic conditions. Every test substance was applied as technical triplicate on a 96-microtiter plate in a total volume of 300 μL per well. The inoculum was directly transferred from a glycerin stock solution or from a freshly prepared preculture. Therefore 15 mL reagent tubes were filled with specific complex growth medium and inoculated with skim milk stocks of single strains. The incubation was done at 37° C. up to 48 h until an OD620>0.1-1.0. Suspensions were controlled microscopically. In both cases the bacteria were transferred and diluted to fresh complex medium on a 96 well plate.
(§3) Test substances were either the pure materials or mixtures. The mixtures contain a cooling compound and an aroma component according to claims. Further these effective building blocks can be included in an aroma composition. Therefore, nature identical (synthetic) bases (base nature identical A/B) and/or natural basic formulations (base natural A/B) can be added.
(§4) The mixtures contained either Carvacrol (synthetic material) or the natural oregano oil with a typical Carvacrol content in the range of 50-80%.
(§5) Test substances were 100-fold solved in dimethyl sulfoxide (DMSO) and diluted directly on the 96 well plate. As […] farnesol and/or triclosan were applied in appropriate concentrations from 1 to 100 ppm. An untreated medium control was applied as growth control. The incubation of the test plates was done for 16-24 h at 37° C. At the end of the experiment, growth was determined photometrically by detecting OD620 values using Sunrise Photometer (TECAN, Austria). Mean values of triplicates were calculated and normalized with blank values (growth medium with or without test substances). The growths of treated wells were evaluated in relation to the growth control. Minimum inhibition concentrations (MIC) were defined as minimal concentration (in ppm) that causes a complete inhibition of bacterial growth.
(§6) Synergies were calculated using the following formula. The formula can be modified according to the number of components per mixture. MIC stands for minimum inhibitory concentration with the dimension of parts per million [ppm].
(§7) [formula] • MICmix=MIC value of mixture [ppm] • PA=Percentage of component A [%] • MIC A=MIC value of component A [ppm] • PB=Percentage of component B [%] • MIC B=MIC value of component B [ppm] A synergism is given if the resulting value is below 1.

[2] = tested on: Streptococcus mutans (DSM 20523, ATCC 25175); assay: as above; assay type: cell-based; conditions: for MIC: Streptococcus mutans
Method: as §1, §2, §3, §4, §5, §6, §7

[3] = tested on: Porphyromonas gingivalis (DSM 20709, ATCC33277); assay: as above; assay type: cell-based; conditions: for MIC: Porphyromonas gingivalis
Method: as §1, §2, §3, §4, §5, §6, §7

[4] = tested on: oral biofilm; assay: Ex vivo biofilm model (Calgary Biofilm Device, FDA hydrolysis); assay type: cell-based, human; conditions: compared to untreated control biofilm (100%); treatment 4 times within 2 days for 2 min at 37° C.
Method: The experiment was developed following the method described in WO2018/033211 and Kistler et al (Kistler et al. 2015).
Up to 50 subjects were recruited for saliva donation. Participants were between 18 and 65 years old and medically healthy. Subjects who had taken antibiotics, ate antimicrobial food such as garlic within last 24 h and/or had suffer from any systemic conditions that may affected their immune or inflammatory status, were excluded from the study. Fresh morning saliva from all donors were selected and pooled. All volunteers were asked to refrain from drinking, eating, or brushing their teeth bevor donating by expectoration into sterile universal tubes.
The Calgary Biofilm Device (CBD) was originally developed for medical usage. It is commercially available as MBEC (Minimum Biofilm Eradication Concentration) Biofilm Inoculator and it is suitable as a basis for biofilm research (Kistler et al. 2015; Ceri et al. 1999). […]
Stock solutions of all test substances were prepared in dimethylsulfoxide (DMSO). […] At the end the pegs were washed again, and microbial activity was quantified photometrically by fluorescein diacetate (FDA) hydrolysis. FDA is converted into fluorescein by protease, lipase, and esterase activities in the biofilm, thus the quantification of fluorescein represents the activity of the biofilm.

[5] = S. mutans, component alone, read-out: MIC B (MIC value of component B)
[6] = read-out: MIC A (MIC value of component A)

Molecule: Cc1ccc(C(C)C)cc1O [Carvacrol]
MIC [1, 6]: 250 µg/mL
MIC [2, 6]: 250 µg/mL
MIC [3, 6]: 250 µg/mL
relative biofilm activity after treatment (FIG. 1) [4]: concentration dependent oral biofilm reduction

Molecule: CC(O)COC(=O)O[C@@H]1C[C@H](C)CC[C@H]1C(C)C (stereo partly shown) [Menthyl propylene glycol carbonate]
MIC B (MIC value of component B) ([2]; S. mutans, component alone): 125 ppm

Molecule: (−)-Menthyl propylene glycol carbonate
MIC B (MIC value of component B) ([3]; P. gingivalis, component alone): 125 ppm

More lines, now with the values ahead:

MIC ([1]; P. intermedia, component alone, read-out: MIC B (MIC value of component B)): 125 µg/mL
MIC [2, 5]: 250 µg/mL
MIC ([3]; P. gingivalis, component alone, read-out: MIC B (MIC value of component B)): 125 µg/mL
Molecule: CC(C)[C@@H]1CC[C@@H](C)C[C@H]1OC(=O)[C@@H](C)O (stereo in doubt) [Menthyl lactate]

MIC [2, 5]: 500 µg/mL
Molecule: CC(C)[C@@H]1CC[C@@H](C)C[C@H]1OCC(O)CO (stereo partly drawn) [3-(−)-Menthoxy)propane-1,2-diol]

MIC B (MIC value of component B) ([1]; P. intermedia, component alone): 250 ppm
MIC B (MIC value of component B) ([2]; S. mutans, component alone): 500 ppm
MIC B (MIC value of component B) ([3]; P. gingivalis, component alone): 250 ppm
Molecule: CC1CCC(C(C)C)C2(C1)OCC(CO)O2 [D,L-Menthone glyceryl ketal]
